Tests used:
[1] = log P by HPLC on a reversed-phase column (C 18), EEC Directive 79/831 Annex V.A8; format: physicochemical
Source text: Called log P (HCOOH) in the table.
Called log P (neutral) in the table.

[2] = system: caterpillars of the armyworm (Spodoptera frugiperda); experiment: Spodoptera frugiperda - spray test; format: in vivo; settings: maize leaf discs, after 7 days
Method: Solvent: 78.0 parts by weight of acetone • • 1.5 parts by weight of dimethylformamide Emulsifier: alkylaryl polyglycol ether […] To produce further test concentrations, the formulation is diluted with emulsifier-containing water. Leaf discs of maize (Zea mays) are sprayed with an active compound preparation of the desired concentration and, after drying, populated with caterpillars of the armyworm (Spodoptera frugiperda).

[3] = system: larvae of the mustard beetle (Phaedon cochleariae); experiment: Phaedon cochleariae - spray test; format: in vivo; settings: after 7 days
Method: Solvent: 78.0 parts by weight of acetone • • 1.5 parts by weight of dimethylformamide
Emulsifier: alkylaryl polyglycol ether
(§1) To produce a suitable active compound formulation, 1 part by weight of active compound is dissolved with the stated parts by weight of solvent and made up with water containing an emulsifier concentration of 1000 ppm until the desired concentration is attained. To produce further test concentrations, the formulation is diluted with emulsifier-containing water.
Discs of Chinese cabbage leaves (Brassica pekinensis) are sprayed with an active compound formulation of the desired concentration and, after drying, populated with larvae of the mustard beetle (Phaedon cochleariae).
After 7 days, the efficacy in % is determined. 100% means that all the beetle larvae have been killed and 0% means that none of the beetle larvae have been killed.

[4] = system: green peach aphid (Myzus persicae); experiment: Myzus persicae - spray test (Chinese cabbage leaf discs); format: in vivo; settings: after 5 days
Method: Solvent: 78 parts by weight of acetone • • 1.5 parts by weight of dimethylformamide Emulsifier: alkylaryl polyglycol ether
as §1
Discs of Chinese cabbage leaves (Brassica pekinensis) infested by all stages of the green peach aphid (Myzus persicae) are sprayed with an active compound formulation of the desired concentration.
After 5 days, the efficacy in % is determined. 100% means that all the aphids have been killed and 0% means that none of the aphids have been killed.

[5] = acidic range, pH 2.7, 0.1% aqueous formic acid/acetonitrile, 55° C.
[6] = neutral range, pH 7.8, 0.001 molar aqueous ammonium hydrogencarbonate/acetonitrile, 55° C.

Structure (SMILES) | LOGP_HCOOH (log P (HCOOH)) ([1]; pH 2.7) | LOGP_NEUTRAL (log P (neutral)) ([1]; pH 7.8) | efficacy ([3]; application rate 100 g/ha) [%] | other results
CCS(=O)(=O)c1ccc(-n2cnc3ccc(OC)cc32)nc1-c1nc2cc(C(F)(F)F)ncc2n1C [Example I-30] | 2.69 | 2.67 |  | 
CCS(=O)(=O)c1ccc(-n2cnc3ccc(Cl)nc32)nc1-c1nc2cc(C(F)(F)F)ncc2n1C [Example I-33] | 3.25 | 3.20 | 100 | efficacy ([2]; application rate 100 g/ha): 100%; efficacy ([2]; application rate 500 g/ha): 100%; efficacy ([3]; application rate 500 g/ha): 100%; efficacy ([4]; application rate 500 g/ha): 90%
CCS(=O)(=O)c1ccc(-n2nnc3ccc(Cl)nc32)nc1-c1nc2cc(C(F)(F)F)ncc2n1C [Example I-37] | 2.96 | 3.00 |  | efficacy ([4]; application rate 100 g/ha): 90%
CCS(=O)(=O)c1ccc(N2Cc3cc(OC)ccc3C2=O)nc1-c1nc2cc(C(F)(F)F)ncc2n1C [Example I-38] | 3.29 | 3.32 |  | efficacy ([2]; application rate 100 g/ha): 100%
CCS(=O)(=O)c1ccc(N2C(=O)c3ccccc3C2=O)nc1-c1nc2cc(C(F)(F)F)ncc2n1C [Example I-40] | 2.92 | 2.96 | 100 | efficacy ([3]; application rate 500 g/ha): 100%
CCS(=O)(=O)c1ccc(-n2c(=O)oc3ccccc32)nc1-c1nc2cc(C(F)(F)F)ncc2n1C [Example I-41] |  |  |  | LOGP_HCOOH (log P (HCOOH)) [1, 5]: 3.25; LOGP_NEUTRAL (log P (neutral)) [1, 6]: 3.26
CCS(=O)(=O)c1ccc(-n2nc3ccc(Cl)nn3c2=O)nc1-c1nc2cc(C(F)(F)F)ncc2n1C [Example I-42] | 2.42 | 2.38 | 100 | 
CCS(=O)(=O)c1ccc(-n2c(=O)n(C)c3ccccc32)nc1-c1nc2cc(C(F)(F)F)ncc2n1C [Example I-44] | 3.10 | 3.06 |  | 
CCS(=O)(=O)c1ccc(-n2c(=O)[nH]c3ccccc32)nc1-c1nc2cc(C(F)(F)F)ncc2n1C [Example I-45] | 2.59 | 2.62 |  | 
CCS(=O)(=O)c1ccc(N2Cc3cccnc3C2=O)nc1-c1nc2cc(C(F)(F)F)ncc2n1C [Example I-46] | 2.26 | 2.30 |  | 
CCS(=O)(=O)c1ccc(-n2c(=O)[nH]c3cc(Cl)ccc32)nc1-c1nc2cc(C(F)(F)F)ncc2n1C [Example I-47] | 3.05 |  |  | 
CCS(=O)(=O)c1ccc(-n2c(=O)[nH]c3ccc(Cl)cc32)nc1-c1nc2cc(C(F)(F)F)ncc2n1C [Example I-48] | 2.97 |  |  | 
CCS(=O)(=O)c1ccc(-n2nnc3ccc(Cl)cc32)nc1-c1nc2cc(C(F)(F)F)ncc2n1C [Example I-49] |  |  | 100 | efficacy ([2]; application rate 100 g/ha): 100%; LOGP_HCOOH (log P (HCOOH)) [1, 5]: 3.74; LOGP_NEUTRAL (log P (neutral)) [1, 6]: 3.74
CCS(=O)(=O)c1ccc(-n2nnc3cc(Cl)ccc32)nc1-c1nc2cc(C(F)(F)F)ncc2n1C [Example I-50] |  |  | 100 | efficacy ([2]; application rate 100 g/ha): 100%; LOGP_HCOOH (log P (HCOOH)) [1, 5]: 3.72; LOGP_NEUTRAL (log P (neutral)) [1, 6]: 3.77
CCS(=O)(=O)c1ccc(-n2cccc3oc(=O)nc2-3)nc1-c1nc2cc(C(F)(F)F)ncc2n1C [Example I-51] | 2.09 | 2.08 |  | 

From US10375962B2, “Heterocycle derivatives as pesticides” (BAYER CROPSCIENCE AKTIENGESELLSCHAFT, priority 2016, dated 2019)
